Experimental data taken from ChEMBL document CHEMBL1201862, “PubChem BioAssay data set” (2004).
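Method: 48-hour compound exposure of cells in 96-well plates, five concentrations, linear interpolation of endpoints. Here, GI50 denotes the concentration required for 50% inhibition of growth.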 Active and inactive are the calls of the source. Rule as the data show it: active = GI50 up to about 1.1 µM and inactive = higher.

Legend:
Experiment in all cases: inhibition of tumour cell growth, NCI panel, 48 h
SW-620 = tested on: SW-620
LOX IMVI = tested on: LOX IMVI
RXF 393 = tested on: RXF 393
OVCAR-3 = tested on: OVCAR-3
MOLT-4 = tested on: MOLT-4
MDA-N = tested on: MDA-N
SF-539 = tested on: SF-539
NCI/ADR-RES = tested on: NCI/ADR-RES
HOP-92 = tested on: HOP-92
SNB-75 = tested on: SNB-75
CAKI-1 = tested on: CAKI-1
T47D = tested on: T47D
MDA-MB-231 = tested on: MDA-MB-231
K562 = tested on: K562
SK-MEL-28 = tested on: SK-MEL-28
UO-31 = tested on: UO-31
HL-60 = tested on: HL-60
COLO 205 = tested on: COLO 205
NCI-H23 = tested on: NCI-H23
786-0 = tested on: 786-0

Compound	GI50 (SW-620)	GI50 (LOX IMVI)	GI50 (RXF 393)	GI50 (OVCAR-3)	GI50 (MOLT-4)	GI50 (MDA-N)	GI50 (SF-539)	GI50 (NCI/ADR-RES)	GI50 (HOP-92)	GI50 (SNB-75)	GI50 (CAKI-1)	GI50 (T47D)	GI50 (MDA-MB-231)	GI50 (K562)	GI50 (SK-MEL-28)	GI50 (UO-31)	GI50 (HL-60)	GI50 (COLO 205)	GI50 (NCI-H23)	GI50 (786-0)
Nc1ncnc2c1ccn2C/C=C/CO	> 100 µM (inactive)	> 100 µM (inactive)	> 100 µM (inactive)	> 100 µM (inactive)	> 100 µM (inactive)	> 100 µM (inactive)	> 100 µM (inactive)	> 100 µM (inactive)	> 100 µM (inactive)	> 100 µM (inactive)	> 100 µM (inactive)	> 100 µM (inactive)	> 100 µM (inactive)	> 100 µM (inactive)	> 100 µM (inactive)	> 100 µM (inactive)	> 100 µM (inactive)	> 100 µM (inactive)	> 100 µM (inactive)	> 100 µM (inactive)
CC(C)C(OC(=O)c1ccc(NCC2=CC(=O)C=CC2=O)cc1)C(C)C	6.76 µM (inactive)	5.15 µM (inactive)	1.82 µM (inactive)	4.12 µM (inactive)	2.01 µM (inactive)	5.2 µM (inactive)	1.99 µM (inactive)	4.3 µM (inactive)	1.79 µM (inactive)	4.35 µM (inactive)	1.4 µM (inactive)	2.1 µM (inactive)	7.06 µM (inactive)	3.66 µM (inactive)	4.05 µM (inactive)	1.82 µM (inactive)	1.25 µM (inactive)	2.79 µM (inactive)	5.05 µM (inactive)	10.4 µM (inactive)
Cc1c(C(=O)c2ccccc2)[n+]([O-])c2cc(Cl)c(Cl)cc2[n+]1[O-]	–	3.72 µM (inactive)	6.08 µM (inactive)	12.4 µM (inactive)	2.73 µM (inactive)	12.3 µM (inactive)	17.2 µM (inactive)	17.9 µM (inactive)	2.96 µM (inactive)	0.0368 µM (active)	3.03 µM (inactive)	0.889 µM (active)	11.1 µM (inactive)	4.01 µM (inactive)	14.7 µM (inactive)	11.8 µM (inactive)	2.04 µM (inactive)	18.1 µM (inactive)	2.39 µM (inactive)	15.8 µM (inactive)
COC1=C(C)C(=O)c2c(c(COC(N)=O)c3n2CC(OC(C)=O)C3OC(C)=O)C1=O (stereo unspecified)	0.0206 µM (active)	0.0294 µM (active)	0.152 µM (active)	0.09 µM (active)	0.242 µM (active)	0.126 µM (active)	0.0239 µM (active)	0.127 µM (active)	0.186 µM (active)	0.208 µM (active)	< 0.01 µM (active)	0.757 µM (active)	0.2 µM (active)	0.0191 µM (active)	0.311 µM (active)	0.15 µM (active)	< 0.0192 µM (active)	0.116 µM (active)	0.0436 µM (active)	< 0.0116 µM (active)
O=[N+]([O-])c1ccc(CSCc2ccc(Cl)cc2)cc1	> 100 µM (inactive)	> 100 µM (inactive)	> 100 µM (inactive)	> 100 µM (inactive)	17.5 µM (inactive)	> 100 µM (inactive)	> 100 µM (inactive)	> 100 µM (inactive)	47.8 µM (inactive)	> 100 µM (inactive)	> 100 µM (inactive)	74.3 µM (inactive)	> 100 µM (inactive)	> 100 µM (inactive)	> 100 µM (inactive)	> 100 µM (inactive)	33.1 µM (inactive)	> 100 µM (inactive)	> 100 µM (inactive)	> 100 µM (inactive)
Cc1cn([C@@H]2O[C@H](CO)[C@@H](O)[C@@H]2O)c(=O)[nH]c1=O	> 1000 µM (inactive)	> 1000 µM (inactive)	> 1000 µM (inactive)	> 1000 µM (inactive)	> 1000 µM (inactive)	> 1000 µM (inactive)	> 1000 µM (inactive)	> 1000 µM (inactive)	> 1000 µM (inactive)	> 1000 µM (inactive)	> 1000 µM (inactive)	> 1000 µM (inactive)	> 1000 µM (inactive)	> 1000 µM (inactive)	> 1000 µM (inactive)	> 1000 µM (inactive)	> 1000 µM (inactive)	> 1000 µM (inactive)	> 1000 µM (inactive)	> 1000 µM (inactive)
Cc1cc(Cc2c(F)c(F)c(C(c3cc(C)no3)c3c(F)c(F)c(F)c(F)c3F)c(F)c2F)on1 (stereo unspecified)	8.02 µM (inactive)	> 46.1 µM (inactive)	2.34 µM (inactive)	> 27.4 µM (inactive)	17.1 µM (inactive)	3.04 µM (inactive)	17.9 µM (inactive)	> 28.2 µM (inactive)	> 100 µM (inactive)	86.7 µM (inactive)	> 72.8 µM (inactive)	> 100 µM (inactive)	> 100 µM (inactive)	9.46 µM (inactive)	> 38.8 µM (inactive)	> 100 µM (inactive)	5.13 µM (inactive)	> 100 µM (inactive)	> 100 µM (inactive)	> 100 µM (inactive)
COc1cccc(/C=C/C2=NN(c3cccc(S(=O)(=O)O)c3)C3(C2)SCC(=O)N3c2nc3ccccc3s2)c1 (stereo unspecified)	47.9 µM (inactive)	21.1 µM (inactive)	54.8 µM (inactive)	–	28.2 µM (inactive)	62.7 µM (inactive)	17.1 µM (inactive)	53.3 µM (inactive)	94.6 µM (inactive)	74.6 µM (inactive)	50.9 µM (inactive)	16.1 µM (inactive)	36.1 µM (inactive)	34.3 µM (inactive)	> 100 µM (inactive)	34.9 µM (inactive)	26.7 µM (inactive)	> 100 µM (inactive)	86.1 µM (inactive)	21 µM (inactive)
COc1cc(/C=C2\N=C(c3ccccc3)N(C3Nc4cc5c(cc4S3)NC(N3C(=O)/C(=C/c4cc(OC)c(OC)c(OC)c4)N=C3c3ccccc3)S5)C2=O)cc(OC)c1OC (stereo unspecified)	> 100 µM (inactive)	74.1 µM (inactive)	> 100 µM (inactive)	61 µM (inactive)	25.9 µM (inactive)	74.3 µM (inactive)	42 µM (inactive)	38.5 µM (inactive)	> 100 µM (inactive)	> 100 µM (inactive)	39.9 µM (inactive)	56.2 µM (inactive)	> 100 µM (inactive)	71.9 µM (inactive)	> 100 µM (inactive)	54.1 µM (inactive)	65.9 µM (inactive)	–	94.6 µM (inactive)	61.1 µM (inactive)
COc1ccc(/C=C/C(=O)c2nc3ccccc3[nH]2)cc1	13.5 µM (inactive)	9.91 µM (inactive)	15.5 µM (inactive)	17.8 µM (inactive)	18 µM (inactive)	11.9 µM (inactive)	8.32 µM (inactive)	18.2 µM (inactive)	14 µM (inactive)	19.8 µM (inactive)	33.3 µM (inactive)	10.7 µM (inactive)	23.4 µM (inactive)	4.88 µM (inactive)	24.5 µM (inactive)	15.7 µM (inactive)	9.79 µM (inactive)	13.2 µM (inactive)	–	11.6 µM (inactive)
Cc1cc(=O)oc2cc(OS(C)(=O)=O)ccc12	> 100 µM (inactive)	> 100 µM (inactive)	> 100 µM (inactive)	> 100 µM (inactive)	–	> 100 µM (inactive)	> 100 µM (inactive)	> 100 µM (inactive)	> 100 µM (inactive)	> 100 µM (inactive)	> 100 µM (inactive)	> 100 µM (inactive)	> 100 µM (inactive)	> 100 µM (inactive)	> 100 µM (inactive)	–	> 100 µM (inactive)	> 100 µM (inactive)	> 100 µM (inactive)	> 100 µM (inactive)
O=C1CCN2C(=N1)Sc1ccccc12	> 100 µM (inactive)	> 100 µM (inactive)	> 100 µM (inactive)	> 100 µM (inactive)	> 100 µM (inactive)	> 100 µM (inactive)	> 100 µM (inactive)	> 100 µM (inactive)	> 100 µM (inactive)	> 100 µM (inactive)	> 100 µM (inactive)	> 100 µM (inactive)	> 100 µM (inactive)	> 100 µM (inactive)	> 100 µM (inactive)	–	> 100 µM (inactive)	> 100 µM (inactive)	> 100 µM (inactive)	> 100 µM (inactive)
CC(=N\N=C\c1ccccn1)/C(C)=N/N=C/c1ccccn1	> 100 µM (inactive)	> 100 µM (inactive)	> 100 µM (inactive)	> 100 µM (inactive)	> 10 µM (inactive)	51.6 µM (inactive)	> 100 µM (inactive)	> 100 µM (inactive)	> 100 µM (inactive)	> 100 µM (inactive)	> 100 µM (inactive)	> 100 µM (inactive)	> 100 µM (inactive)	–	> 100 µM (inactive)	> 100 µM (inactive)	> 100 µM (inactive)	> 100 µM (inactive)	> 100 µM (inactive)	> 100 µM (inactive)
COc1cc(Cl)c(CC(=O)c2c[nH]c3ccccc23)cc1OC	> 100 µM (inactive)	> 100 µM (inactive)	12.3 µM (inactive)	> 51.9 µM (inactive)	> 100 µM (inactive)	> 100 µM (inactive)	6.22 µM (inactive)	> 81.7 µM (inactive)	5.36 µM (inactive)	8.93 µM (inactive)	> 36.1 µM (inactive)	> 28.5 µM (inactive)	8.95 µM (inactive)	> 49.2 µM (inactive)	> 100 µM (inactive)	–	> 37.2 µM (inactive)	> 100 µM (inactive)	> 42.5 µM (inactive)	13.7 µM (inactive)
